According to patent US20230141198A1, “PYRAZOL[…]” (THE KITASATO INSTITUTE, priority 2019, published 2023):

Columns and labels:
Format in all cases: cell-based
hERG channel = molecular target: T1, hERG channel (Homo sapiens, UniProt Q12809); test: hERG potassium channel inhibition test (auto patch clamp); details: hERG channel stably expressing CHO cells, perfused at room temperature for 5 minutes
T1 construct: host or cells: CHO cells
Method: Ether-a-Go-Go Related Gene (hERG) Potassium Channel Inhibition Test
A test was performed using hERG channel stably expressing CHO cells (purchased from Channelopathy Foundation) with a Port-a-Patch auto patch clamping device (Nanion Technologies). A membrane potential of the cells was held at −80 mV, and then a test pulse of −50 mV for 1.5 seconds was applied at a frequency of once every 10 seconds following a depolarization pulse of +20 mV for 1.5 seconds. An hERG current was confirmed by a tail current induced by the test pulse. A test compound was dissolved in an extracellular solution ([…] NaCl, 4 mM KCl, 1.82 mM CaCl2, 1 mM MgCl2, 105 mM D(+)-glucose, 10 mM HEPES, pH 7.4) and perfused at room temperature for 5 minutes. An inhibition ratio was determined from a ratio of a tail current value after application of the compound when a maximum tail current value before application of the compound was taken as 100%. For the test, cells having a peak current value of the tail current of 300 pA or more, tail current run-down of less than 10% of a current initial value, and a leak current of less than 200 pA were used.

human opioid κ receptor = molecular target: T2, human opioid κ receptor (Homo sapiens, UniProt P41145); test: Opioid receptor function test (agonist activity, Lance Ultra cAMP kit), κ receptor; details: for Emax: maximum reaction relative to control drug U-69593 taken as 100%
T2 construct: host or cells: CHO cells
Description: (§1) Opioid Receptor Function Test
(§2) Functional activity of the compound provided by the present invention on μ, δ, and κ opioid receptors was examined.
(§3) Method: Using a Lance Ultra cAMP kit (Perkin Elmer), the functional activity was examined by a predetermined method. In evaluation of agonist activity, CHO cells expressing each of human opioid receptors (δ, μ, and κ: accession numbers and catalog numbers are described below) were reacted with a test compound in an assay buffer (1× HBSS, […], pH 7.4, […] isobutylmethylxanthine (IBMX), 7.5% BSA) in the presence of 10 μM forskolin for 30 minutes. Subsequently, a cAMP detection reagent in the kit was added. One hour later, time-resolved fluorescence measurement was performed using an EnVision plate reader (Perkin Elmer). The test compound and each control drug (δ: SNC 80, μ: DAMGO, κ: U-69593) were evaluated in a concentration range of 10^−12 to 10^−5 M. A dose reaction curve of the test compound was determined from a fluorescence value at 665 nm, and an EC50 value and an Emax value were calculated. The Emax value was determined as a ratio of a maximum reaction of the test compound when a maximum reaction of each control drug was taken as 100%.

human opioid μ receptor = molecular target: T3, human opioid μ receptor (Homo sapiens, UniProt P35372); test: Opioid receptor function test (agonist activity, Lance Ultra cAMP kit), μ receptor; details: for Emax: maximum reaction relative to control drug DAMGO taken as 100%
T3 construct: host or cells: CHO cells
Description: as §1, §2, §3

human opioid δ receptor = molecular target: T4, human opioid δ receptor (Homo sapiens, UniProt P41143); test: Opioid receptor function test (agonist activity, Lance Ultra cAMP kit), δ receptor; details: for Emax: maximum reaction relative to control drug SNC 80 taken as 100%
T4 construct: host or cells: CHO cells
Description: as §1, §2, §3

T4 sequence (P41143 whole entry): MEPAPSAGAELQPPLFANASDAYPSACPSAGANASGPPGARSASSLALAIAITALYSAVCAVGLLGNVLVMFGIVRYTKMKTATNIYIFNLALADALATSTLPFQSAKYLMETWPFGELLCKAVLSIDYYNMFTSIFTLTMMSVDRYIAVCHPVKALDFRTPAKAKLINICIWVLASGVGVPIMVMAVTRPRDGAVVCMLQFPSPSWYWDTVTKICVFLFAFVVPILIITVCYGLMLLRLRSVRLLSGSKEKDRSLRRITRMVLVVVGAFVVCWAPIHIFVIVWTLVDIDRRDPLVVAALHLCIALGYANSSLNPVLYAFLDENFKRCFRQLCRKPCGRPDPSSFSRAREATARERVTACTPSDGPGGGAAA
T1 sequence (Q12809 whole entry, the tested form may be a part): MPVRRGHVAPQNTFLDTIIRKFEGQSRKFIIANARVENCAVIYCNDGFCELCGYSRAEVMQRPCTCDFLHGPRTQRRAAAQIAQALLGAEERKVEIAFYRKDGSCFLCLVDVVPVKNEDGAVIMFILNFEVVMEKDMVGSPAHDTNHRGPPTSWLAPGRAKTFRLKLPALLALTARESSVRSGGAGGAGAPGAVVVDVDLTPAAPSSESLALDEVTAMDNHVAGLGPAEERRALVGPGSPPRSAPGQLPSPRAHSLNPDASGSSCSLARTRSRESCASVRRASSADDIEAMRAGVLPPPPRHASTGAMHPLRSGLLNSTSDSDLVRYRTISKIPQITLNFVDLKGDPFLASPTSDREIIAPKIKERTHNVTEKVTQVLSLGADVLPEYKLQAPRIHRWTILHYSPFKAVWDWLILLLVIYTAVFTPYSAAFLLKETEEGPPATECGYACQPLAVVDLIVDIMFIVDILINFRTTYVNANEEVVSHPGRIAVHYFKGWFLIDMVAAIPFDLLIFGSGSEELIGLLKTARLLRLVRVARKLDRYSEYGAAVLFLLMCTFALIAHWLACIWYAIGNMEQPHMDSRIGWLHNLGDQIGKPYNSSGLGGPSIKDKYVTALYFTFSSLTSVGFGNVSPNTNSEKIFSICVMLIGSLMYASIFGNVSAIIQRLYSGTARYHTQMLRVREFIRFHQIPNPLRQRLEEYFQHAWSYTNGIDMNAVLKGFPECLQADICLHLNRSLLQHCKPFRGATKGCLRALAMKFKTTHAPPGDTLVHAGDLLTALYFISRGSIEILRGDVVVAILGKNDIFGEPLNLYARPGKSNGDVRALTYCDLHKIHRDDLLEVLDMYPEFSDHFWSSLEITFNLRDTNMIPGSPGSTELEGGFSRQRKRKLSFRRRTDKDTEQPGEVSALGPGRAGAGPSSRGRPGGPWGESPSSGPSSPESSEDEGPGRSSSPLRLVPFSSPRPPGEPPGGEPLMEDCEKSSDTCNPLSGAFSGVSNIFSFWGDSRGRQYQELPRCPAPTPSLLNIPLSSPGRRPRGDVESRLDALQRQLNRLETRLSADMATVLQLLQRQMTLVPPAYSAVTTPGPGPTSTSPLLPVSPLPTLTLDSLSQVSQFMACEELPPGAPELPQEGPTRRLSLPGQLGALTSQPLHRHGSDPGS
T2 sequence (P41145 whole entry): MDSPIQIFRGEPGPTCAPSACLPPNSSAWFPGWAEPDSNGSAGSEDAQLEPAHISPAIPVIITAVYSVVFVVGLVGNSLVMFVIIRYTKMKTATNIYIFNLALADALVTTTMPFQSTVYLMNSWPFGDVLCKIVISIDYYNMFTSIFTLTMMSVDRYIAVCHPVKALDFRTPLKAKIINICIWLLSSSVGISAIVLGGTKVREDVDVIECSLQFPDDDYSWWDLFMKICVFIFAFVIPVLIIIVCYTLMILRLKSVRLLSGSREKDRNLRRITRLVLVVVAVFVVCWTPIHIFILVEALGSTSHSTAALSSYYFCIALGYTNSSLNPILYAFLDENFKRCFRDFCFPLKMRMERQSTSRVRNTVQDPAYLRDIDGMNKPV
T3 sequence (P35372 whole entry): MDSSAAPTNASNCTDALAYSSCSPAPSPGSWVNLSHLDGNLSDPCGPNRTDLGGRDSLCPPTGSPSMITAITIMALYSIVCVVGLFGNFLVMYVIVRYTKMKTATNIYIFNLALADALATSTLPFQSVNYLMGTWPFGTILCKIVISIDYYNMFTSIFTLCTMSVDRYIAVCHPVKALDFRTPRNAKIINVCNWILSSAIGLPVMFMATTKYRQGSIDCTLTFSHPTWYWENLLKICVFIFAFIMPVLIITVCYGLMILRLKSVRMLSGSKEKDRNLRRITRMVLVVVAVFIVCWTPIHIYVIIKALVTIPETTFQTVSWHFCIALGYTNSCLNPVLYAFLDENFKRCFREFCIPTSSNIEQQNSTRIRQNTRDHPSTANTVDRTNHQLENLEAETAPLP

Row | Compound | hERG inhibitory effect (tail current inhibition) (hERG channel) | EC50 (human opioid κ receptor) | Emax (human opioid κ receptor) | EC50 (human opioid μ receptor) | Emax (human opioid μ receptor) | EC50 (human opioid δ receptor) | Emax (human opioid δ receptor)
1 | Cc1c2c(nn1C(C)C)C[C@]13CCN(CC4CC4)[C@H](Cc4ccc(O)cc41)[C@]3(O)C2 [Compound 22, (6R,6aS,11aR)-14-(cyclopropylmethyl)-9-isopropyl methyl-5,6,9,11-tetrahydro-6,11a-(epiminoethano)naphtho[2,1-f]indazole-2,6a(7H)-diol] | only weak inhibitory effect | 13 nM | 35% | 15 nM | 15% | 0.18 nM | 107%
2 | Cc1nn(C(C)C)c2c1C[C@@]1(O)[C@H]3Cc4ccc(O)cc4[C@@]1(CCN3CC1CC1)C2 [Compound 23, (6R,6aS,11aR)-14-(cyclopropylmethyl)-10-isopropyl-8-methyl-5,6,10,11-tetrahydro-6,11a-(epiminoethano)naphtho[2,1-f]indazole-2,6a(7H)-diol] | only weak inhibitory effect | – | – | – | – | 0.48 nM | 95%
3 | Cc1c2c(nn1C(C)(C)C)C[C@]13CCN(CC4CC4)[C@H](Cc4ccc(O)cc41)[C@]3(O)C2 [Compound 24, (6R,6aS,11aR)-9-(tert-butyl)-14-(cyclopropylmethyl)-8-methyl-5,6,9,11-tetrahydro-6,11a-(epiminoethano)naphtho[2,1-f]indazole-2,6a(7H)-diol] | only weak inhibitory effect | 17 nM | 23% | – | – | 0.14 nM | 108%
4 | Cc1nn(CCO)c2c1C[C@@]1(O)[C@H]3Cc4ccc(O)cc4[C@@]1(CCN3CC1CC1)C2 [Compound 44, (6R,6aS,11aR)-14-(cyclopropylmethyl)-10-(2-hydroxyethyl)-8-methyl-5,6,10,11-tetrahydro-6,11a-(epiminoethano)naphtho[2,1-f]indazole-2,6a(7H)-diol] | only weak inhibitory effect | – | – | – | – | – | –
5 | Cc1c2c(nn1C1CCCC1)C[C@]13CCN(CC4CC4)[C@H](Cc4ccc(O)cc41)[C@]3(O)C2 [Compound 87, (6R,6aS,11aR)-9-cyclopentyl-14-(cyclopropylmethyl)-8-methyl-5,6,9,11-tetrahydro-6,11a-(epiminoethano)naphtho[2,1-f]indazole-2,6a(7H)-diol] | – | 59 nM | 30% | 28 nM | 24% | 0.11 nM | 106%
6 | Cc1nn(C2CCN(C)CC2)c2c1C[C@@]1(O)[C@H]3Cc4ccc(O)cc4[C@@]1(CCN3CC1CC1)C2 [Compound 91, (6R,6aS,11aR)-14-(cyclopropylmethyl)-8-methyl-10-(1-methylpiperidin-4-yl)-5,6,10,11-tetrahydro-6,11a-(epiminoethano)naphtho[2,1-f]indazole-2,6a(7H)-diol] | – | 15 nM | 25% | 32 nM | 12% | 0.23 nM | 112%
7 | Cc1c2c(nn1C1CCN(C)CC1)C[C@]13CCN(CC4CC4)[C@H](Cc4ccc(O)cc41)[C@]3(O)C2 [Compound 92, (6R,6aS,11aR)-14-(cyclopropylmethyl)-8-methyl-9-(1-methylpiperidin-4-yl)-5,6,9,11-tetrahydro-6,11a-(epiminoethano)naphtho[2,1-f]indazole-2,6a(7H)-diol] | – | 16 nM | 20% | 52 nM | 17% | 0.51 nM | 103%
